Data published in ChEMBL document CHEMBL1146520, “Sterol and triterpenoid constituents of Verbena littoralis with NGF-potentiating activity” (J Nat Prod, 2003).
The source made the active and inactive calls. The rule behind the calls is not given here.

Legend:
Format in all cases: functional, cell-based
[1] = system: PC-12; experiment: Enhancement of neurite outgrowth in rat PC12D cells up to 30 uM in absence of nerve growth factor
[2] = system: PC-12; experiment: Enhancement of nerve growth factor-stimulated neurite outgrowth in rat PC12D cells at 3 to 10 uM
[3] = system: PC-12; experiment: Enhancement of nerve growth factor-stimulated neurite outgrowth in rat PC12D cells at 1 to 3 uM

Row | Structure (SMILES) | Activity [1] | Activity [2] | Activity [3]
1 | CC[C@H](C[C@@H](O)[C@@H](C)[C@H]1CC[C@H]2[C@@H]3[C@H](O)C=C4[C@@H](O)[C@@H](O)CC[C@]4(C)[C@H]3CC[C@]12C)C(C)C | inactive |  | 
2 | CC1(C)CC[C@]2(C(=O)O)CC[C@]3(C)C(=CC[C@@H]4[C@@]5(C)CC[C@H](O)C(C)(C)[C@@H]5CC[C@]43C)[C@@H]2C1 | inactive | Active | 
3 | CC[C@H](C[C@@H](O)[C@@H](C)[C@H]1CC[C@H]2[C@@H]3[C@H](O)C=C4C[C@@H](O)CC[C@]4(C)[C@H]3CC[C@]12C)C(C)C | inactive | Active | 
4 | C[C@H]1[C@H](C)CC[C@]2(C(=O)O)CC[C@]3(C)C(=CC[C@@H]4[C@@]5(C)CC[C@H](O)C(C)(C)[C@@H]5CC[C@]43C)[C@H]12 | inactive |  | Active
